According to publication PMC7352759, “S(+)-(2E)-N-(2-Hydroxypropyl)-3-Phenylprop-2-Enamide (KM-568): A Novel Cinnamamide Derivative with Anticonvulsant Activity in Animal Models of Seizures and Epilepsy” (International Journal of Molecular Sciences, 2020):

How the values were obtained:
CF-1 mice = test: Chemoconvulsant test, picrotoxin; type: in vivo; settings: 0.25 h; for Picrotoxin Results (protected/tested animals): i.p.
Protocol: After 0.25 h, the subcutaneous injections of either bicuculine (2.7 mg/kg) or picrotoxin (2.5 mg/kg) were performed. The, animals were placed in isolation cages and observed for 30 min (in a bicuculine assay) or 45 min (in a picrotoxin assay) for the presence or absence of an episode of a clonic seizure.

rats = test: Pilocarpine-induced status epilepticus model; type: in vivo
Protocol: Compound KM-568 was tested in rats at the doses in the range 200–400 mg/kg i.p. in a pilocarpine-induced status epilepticus model. After administration of pilocarpine, at the time point when a convulsive effect of at least level 3 in the Racine scale was noted (time 0 h) and 0.5 h afterwards (time 0.5 h), KM-568 was administered intraperitoneally at a certain dose.
Pilocarpine was administered intraperitoneally into rats at the dose of 50 mg/kg. Each animal was being observed. The time point when the convulsive effect at the level of at least 3 in the Racine scale was noted (time 0 h), and, 0.5 h (time 0.5 h) afterwards, KM-568 was administered.

mice = test: Maximal electroshock test (MES), mice; type: in vivo; settings: for ED50: Mus musculus, 95% confidence interval in parentheses
Protocol: In vivo activity testing was performed at the Epilepsy Branch, National Institute of Neurological Disorders and Stroke, National Institutes of Health (NIH, Bethesda, USA) within the Anticonvulsant Screening Program (ASP) (currently known as the Epilepsy Therapy Screening Program (ETSP)). Pharmacological evaluation was planned and performed in accordance with the Institute of Laboratory Resources polices on the humane care of laboratory animals and approved by the University of Utah’s Institutional Animal Care and Use Committee (IACUC). All testing protocols were previously published as well as they are available on the NIH website. In the tests, albino mice Carworth Farms No.1 (CF-1) (Charles River), C57/Bl6 mice (Charles River), Frings mice (University of Utah) or male rats Sprague–Dawley (Charles River) were used. All animals were housed, fed, and handled in a manner consistent with the recommendations in the National Council Publication, ‘Guide for the Care and Use of Laboratory animals’ [51]. The tested compound was suspended in 0.5% methylcellulose.
After intraperitoneal or oral administration of compound KM-568 at certain dose, an alternating current at 60 Hz and 50 mA (mice) or 150 mA (rats) was delivered for 0.2 sec via corneal electrodes to induce seizures. Prior to each stimulation, a drop of 0.5% tetracaine hydrochloride in saline was applied to cornea. Protection was defined as the abolition of the hindlimb tonic extension of the seizures.

[1] = Ames microplate format (MPF) assay, TA1535; settings: Salmonella typhimurium, Salmonella typhimurium TA1535
Source text: (§1) The Ames microplate format (MPF) mutagenicity assay (Xenometrix, Allschwil, Switzerland) was used to test KM-568 mutagenicity. Growth, exposure, and indicator media, positive control chemicals, and four Salmonella typhimurium strains TA98, TA100, TA1535 and TA1537 were included in the kit. TA100 and TA1535 strains detect base substitution mutations, whereas TA98 and TA1537 indicate frameshift mutations. The strains of bacteria included in a kit are in compliance with the Organization for Economic Cooperation and Development (OECD) 471 Guideline for Testing of Chemicals.
(§2) The assay is a liquid microplate modification of the traditional Salmonella test. During the procedure, bacteria are exposed to different concentrations of a test compound for 90 min in a medium containing sufficient histidine to support cell divisions. Then, the cultures are diluted in a pH indicator medium lacking histidine and aliquoted into 48 wells of a 384-well plate. Within 2 days, bacteria that have undergone reversion to amino acid prototrophy will form colonies. Products of bacteria metabolism reduce pH of the medium, changing the color of wells from purple to yellow.
The test procedure provided by Xenometrix and described in detail elsewhere was followed. Bacterial strains were grown overnight (14–16 h) in exposure medium in a shaker incubator and then exposed to KM-568 in 24-well plates for 90 min at 37 °C with agitation. Final KM-568 concentrations in the assay were 0.1, 0.2, and 0.5 mM. After preincubation, the cultures were diluted in the indicator medium and the contents of each 24-well culture were transferred to 48 wells on a 384-well plate and incubated further for 48 h at 37 °C without agitation. After the exposure, the number of wells containing bacteria was scored for yellow wells. […] Pure DMSO was used as a negative control. All doses were performed in triplicate.
The fold increase of revertants relative to the solvent control was determined by dividing the mean number of positive wells at each dose by the solvent control at baseline. The solvent control at baseline was calculated as the mean number of positive wells in the solvent control plus one standard deviation (SD). When an increase of more than twofold relative to the baseline at more than one dose with a dose–response was observed, the sample was classified as positive, whereas when no response > 2 times the baseline and no dose–response was stated, the sample was classified as negative.

[2] = Ames microplate format (MPF) assay, TA100; settings: Salmonella typhimurium
Source text: as §1, §2
The test procedure provided by Xenometrix and described in detail elsewhere was followed. Bacterial strains were grown overnight (14–16 h) in exposure medium in a shaker incubator and then exposed to KM-568 in 24-well plates for 90 min at 37 °C with agitation. Final KM-568 concentrations in the assay were 0.1, 0.2, and 0.5 mM. After preincubation, the cultures were diluted in the indicator medium and the contents of each 24-well culture were transferred to 48 wells on a 384-well plate and incubated further for 48 h at 37 °C without agitation. After the exposure, the number of wells containing bacteria was scored for yellow wells. […]
The fold increase of revertants relative to the solvent control was determined by dividing the mean number of positive wells at each dose by the solvent control at baseline. The solvent control at baseline was calculated as the mean number of positive wells in the solvent control plus one standard deviation (SD). […]

[3] = system: rat cerebral cortex GABA receptor; test: GABA receptor radioligand binding ([3H]GABA); settings: 10 µM; non-selective agonist radioligand
Protocol: In order to identify molecular mechanism of action, KM-568 was tested at 10 µM in three radioligand binding assays: rat cerebral cortex GABA receptor non-selective agonist radioligand, AMPA (α-amino-3-hydroxy-5-methyl-4-isoxazolepropionic acid) receptor agonist radioligand, and NMDA (N-methyl-D-aspartate) receptor antagonist radioligand as well as one functional assay involving a human recombinant TRPV1 receptor expressed in CHO cells (agonist and antagonist effects).
Tests were performed by Eurofins Cerep (Eurofins CEREP SA, Celle-Lévescault, France) as a commercial service. In radioligand assays, rat cerebral cortex GABA receptor as well as rat cerebral cortex AMPA (α-amino-3-hydroxy-5-methyl-4-isoxazolepropionic acid) and NMDA (N-methyl-D-aspartate) receptors with 10 nM [^3H]GABA, 8 nM [^3H]AMPA, and 5 nM [^3H]CGP39653, respectively, were used. The results were detected by means of scintillation counting. In functional assays, a human recombinant TRPV1 receptor expressed in Chinese hamster ovary (CHO) cells with 1 µM capsaicin or 30 nM capsazepine were used. Fluorimetry was used as a detection method.

Compound: C[C@H](O)CNC(=O)/C=C/c1ccccc1 [KM-568, S(+)-(2E)-N-(2-hydroxypropyl)-3-phenylprop-2-enamide]
- ED50 (CF-1 mice; Mus musculus, ip, 95% confidence interval in parentheses): 94.1 mg/kg
- Picrotoxin Results (protected/tested animals) (CF-1 mice; 70 mg/kg): 1/8
- Picrotoxin Results (protected/tested animals) (CF-1 mice; 100 mg/kg): 5/8
- Picrotoxin Results (protected/tested animals) (CF-1 mice; 130 mg/kg): 7/8
- ED50 (rats; Rattus norvegicus, ip, 0.5 h, given at time 0.5 h): 297 mg/kg
- Results (protected/tested animals) (rats; i.p., 200 mg/kg, given at time 0 h): 8/8
- Results (protected/tested animals) (rats; i.p., 200 mg/kg, given at time 0.5 h): 1/8
- Results (protected/tested animals) (rats; i.p., 300 mg/kg, given at time 0.5 h): 5/8
- Results (protected/tested animals) (rats; i.p., 400 mg/kg, given at time 0.5 h): 7/8
- ED50, pilocarpine-induced status epilepticus (rats; i.p., given at time 0.5 h): 279.45 (212.61–344.62) mg/kg
- ED97, pilocarpine-induced status epilepticus (rats; i.p., given at time 0.5 h): 498.2 (378.3–1526.9) mg/kg
- ED50 (mice; ip, 0.25 h): 44.5 mg/kg
- ED50 (mice; po, 0.5 h): 86.6 mg/kg
- MES Results (protected/tested animals) (mice; i.p., 25 mg/kg, 0.25 h): 0/8
- MES Results (protected/tested animals) (mice; i.p., 38 mg/kg, 0.25 h): 1/8
- MES Results (protected/tested animals) (mice; i.p., 41 mg/kg, 0.25 h): 0/8
- MES Results (protected/tested animals) (mice; i.p., 42 mg/kg, 0.25 h): 2/8
- MES Results (protected/tested animals) (mice; i.p., 44 mg/kg, 0.25 h): 5/8
- MES Results (protected/tested animals) (mice; i.p., 50 mg/kg, 0.25 h): 7/8
- MES Results (protected/tested animals) (mice; p.o., 50 mg/kg, 0.5 h): 0/8
- MES Results (protected/tested animals) (mice; p.o., 60 mg/kg, 0.5 h): 2/8
- MES Results (protected/tested animals) (mice; p.o., 70 mg/kg, 0.5 h): 2/8
- MES Results (protected/tested animals) (mice; p.o., 90 mg/kg, 0.5 h): 3/8
- MES Results (protected/tested animals) (mice; p.o., 120 mg/kg, 0.5 h): 7/8
- MES Results (protected/tested animals) (mice; p.o., 150 mg/kg, 0.5 h): 8/8
- fold induction at 90 min, 0.1 mM [1]: 0.7
- fold induction at 90 min, 0.2 mM [1]: 1.3
- fold induction at 90 min, 0.5 mM [1]: 1.1
- fold induction at 90 min, 0.1 mM [2]: 0.8
- fold induction at 90 min, 0.2 mM [2]: 0.7
- fold induction at 90 min, 0.5 mM [2]: 1
- Effect in GABA receptor radioligand binding assay [3]: No significant effects
